Data on two compounds can be found in patent US20050261250A1, “Compositions and methods for inhibiting bone resorption” (Merck & Co., Inc.,, priority 2004, published 2005).

Series [1] in a line: Autoxidative lability of vitamin D3 as oil or amorphous solid (HPLC). Type of series: physicochemical. The note with it: 20-40° C., within hours. From the text:
It is also understood that vitamin D can undergo autoxidation through induction by a free radical initiator or spontaneously in solid or solution phase to form a variety of products, some of which have been identified. Representative characterization of vitamin D degradation (and, specifically, vitamin D3 in this instance) in embodiments of compositions of the present invention confirms the autoxidative lability of vitamin D3 in which vitamin D3 was converted to an oil or amorphous solid and exposed to temperatures from 20-40° C. […] At longer exposure times, these absorptions continued to decrease as further reaction occurred.

For series [2] the following is noted: cited from earlier work.

For the compound `C=C1CC[C@H](O)C/C1=C/C=C1\CCC[C@]2(C)[C@@H]([C@H](C)CCCC(C)C)CC[C@@H]12` [Vitamin D3, cholecalciferol], the “HPLC analysis of vitamin D3 after exposure” value in series [1] is recorded as “extensive destruction”.

Take `C=C1CC[C@H](O)C/C1=C/C=C1\CCC[C@]2(C)[C@@H]([C@H](C)/C=C/[C@H](C)C(C)C)CC[C@@H]12` [vitamin D2, ergocalciferol]: the aqueous solubility entry in series [2] is “water insoluble”.
